Assay results reported in patent publication US4416885A, “Use of isopropylaminopyrimidine in the chemotherapy of muscular dystrophy, myopathy and myotonia” (priority 1982, dated 1983).

What was measured:
Format in all cases: in vivo, chicken
normal chickens 412 = assay: Experiment 4, weight of normal chickens injected with IAPP; conditions: 50 mg/Kg
Description: All chickens were injected with 50 mg/Kg IAPP and weighed approximately every second or third day.
A: Control-injected with PBS
B, C, D: Experimental-injected with 50 mg/Kg IAPP

[1] = tested on: plasma AChE (acetylcholinesterase); assay: Plasma AChE; design: AChE: unit not given here
Description: Chemotherapy was assessed by application of seven different parameters: physical tests of muscular disability, namely the flip test and wing apposition (W.A.) measurements; biochemical assays of serum and muscle enzume levels of creatine phosphokinase (CPK), pyruvate kinase (PK) and acetylcholinesterase (AChE); and histological comparisons of treated and untreated muscle. Toxicity studies (weight loss, etc.) were also used. A very comprehensive profile of the drug was thus obtained which related to all the known, highly characteristic features of the disease which are applicable to both the animal model and the human.
The elevation of this enzyme in the dystrophic chicken occurs from 8 days and reaches a plateau at 100 days, compared to the normal animal where the levels continue to decline slowly. […]
(§1) Finally, oral therapy with IAPP was undertaken at gradually increasing dosages up to 1 g/Kg/day. The parameters (physical, biochemical and histological) measured previously were again used to test the efficacy of the drug; five different dosages were used orally, each being given for 30-60 days, daily (Tables VII-XI). A total of 75 animals were treated in the current study with IAPP and 70 control animals were used.

[2] = tested on: dystrophic 413 muscle explants; assay: Microtubule complexes in muscle explants of injected dystrophic chickens
Source text: Essentially, these experiments were divided into three subgroups, taken from the previous Table:
413A, 413B, 412A, 412B: All were sacrificed after 4 injections and muscle explants placed in culture.
413C, 412C: All were sacrificed after 8 injections and muscle explants were placed in culture.
413D, 412D: All were sacrificed after 10 injections and muscle explants placed in culture.
All explants were placed in CMRL culture medium containing 5% horse serum, 15% fetal bovine serum and 1% antibiotics and allowed to grow for 5-7 days before being fixed and observed for the presence or absence of microtubules. No IAPP was added to the culture medium during the 5-7 days in culture.

[3] = tested on: dystrophic New Hampshire chickens, line 413; assay: Flip test (flip number FN, out of five attempts)
Description: The compound IAPP was tested on dystrophic New Hampshire chickens, line 413, and Imperial College (London, England) sub-line of the original Davis, University of California strain. The chickens are homozygous for muscular dystrophy, the disease appearing with 100% incidence.
The animal is placed on its back in the supine position. The number of times it is able to rise, out of five attempts, is known as the flip number (FN). The normal chicken invariably scores 5 (out of 5 attempts), whereas in an untreated dystrophic chicken, the number declines to zero in 6-8 weeks. The test is performed once every […], seven days; more frequent assessment introduces an exercise factor and is not recommended.
The drug was administered daily in water, injected intra-peritoneally, the amount being adjusted on a weekly basis according to the animal's weight.
as §1

[4] = tested on: dystrophic New Hampshire chickens, line 413; assay: Toxicity (weight change, other symptoms) in dystrophic chickens
[5] = 200 mg/Kg i.p. daily for 30 days, day 45 ex ovo
[6] = 200 mg/Kg i.p. daily for 30 days, day 84 ex ovo
[7] = 300 mg/Kg i.p. daily for 30 days, day 45 ex ovo
[8] = 300 mg/Kg i.p. three times weekly for 30 days, day 45 ex ovo
[9] = 300 mg/Kg i.p. three times weekly for 30 days, day 84 ex ovo
[10] = Table VII, oral 200 mg/Kg, 60 days, day 35 ex ovo
[11] = oral 450 mg/Kg daily for 45 days, day 28 ex ovo
[12] = oral 600 mg/Kg daily, day 28 ex ovo
[13] = oral 1 g/Kg daily, day 35 ex ovo

CC(C)Nc1ncccn1.O=P(O)(O)O [IAPP, 2-isopropylaminopyrimidine orthophosphate]
Weight (normal chickens 412; Exp. 4, 412B, day 1): 51.3 GRAMS
Weight (normal chickens 412; Exp. 4, 412B, day 4): 55.8 GRAMS
Weight (normal chickens 412; Exp. 4, 412B, day 7): 67.6 GRAMS
Weight (normal chickens 412; Exp. 4, 412B, day 9): 68.1 GRAMS
Weight (normal chickens 412; Exp. 4, 412C, day 1): 50.8 GRAMS
Weight (normal chickens 412; Exp. 4, 412C, day 4): 59.9 GRAMS
Weight (normal chickens 412; Exp. 4, 412C, day 7): 67.8 GRAMS
Weight (normal chickens 412; Exp. 4, 412C, day 9): 67.7 GRAMS
Weight (normal chickens 412; Exp. 4, 412C, day 11): 76.4 GRAMS
Weight (normal chickens 412; Exp. 4, 412C, day 14): 111.8 GRAMS
Weight (normal chickens 412; Exp. 4, 412C, day 16): 139.0 GRAMS
Weight (normal chickens 412; Exp. 4, 412C, day 17): 150.2 GRAMS
Weight (normal chickens 412; Exp. 4, 412D, day 1): 52.6 GRAMS
Weight (normal chickens 412; Exp. 4, 412D, day 4): 60.5 GRAMS
Weight (normal chickens 412; Exp. 4, 412D, day 7): 67.7 GRAMS
Weight (normal chickens 412; Exp. 4, 412D, day 9): 67.7 GRAMS
Weight (normal chickens 412; Exp. 4, 412D, day 11): 76.6 GRAMS
Weight (normal chickens 412; Exp. 4, 412D, day 14): 112.8 GRAMS
Weight (normal chickens 412; Exp. 4, 412D, day 16): 139.6 GRAMS
Weight (normal chickens 412; Exp. 4, 412D, day 20): 191.5 GRAMS
Weight (normal chickens 412; Exp. 4, 412D, day 22): 246.4 GRAMS
Weight (normal chickens 412; Exp. 4, 412D, day 25): 273.4 GRAMS
AChE [1, 5]: 60.4
AChE, % change from control [1, 5]: -29%
AChE [1, 6]: 87
AChE, % change from control [1, 6]: -46%
AChE [1, 7]: 48.4
AChE, % change from control [1, 7]: -43%
AChE [1, 8]: 62.9
AChE, % change from control [1, 8]: -27%
AChE [1, 9]: 90
AChE, % change from control [1, 9]: -45%
% AChE Change vs untreated dystrophic controls ([1]; Exp. 2, 40 mg/Kg i.p. daily, day 42-48): -55%
AChE [1, 10]: 77.8
AChE, % change from control [1, 10]: -6%
AChE [1, 11]: 520
AChE, % change from control [1, 11]: -12%
AChE [1, 12]: 46.9
AChE, % change from control [1, 12]: -21%
AChE [1, 13]: 53.9
AChE, % change from control [1, 13]: -47%
% Full Complexes Microtubules ([2]; 413B, Subgroup A, after 4 injections of 50 mg/Kg, 413A control 31%): 58%
% Full Complexes Microtubules ([2]; 413C, Subgroup B, after 8 injections of 50 mg/Kg): 60%
% Full Complexes Microtubules ([2]; 413D, Subgroup C, after 10 injections of 50 mg/Kg): 74%
FN (out of 5 attempts), treated ([3]; 200 mg/Kg i.p. daily for 30 days, day 28 ex ovo, control 4.9): 5.0
FN (out of 5 attempts), treated ([3]; 200 mg/Kg i.p. daily for 30 days, day 45 ex ovo, control 3.5): 3.3
FN (out of 5 attempts), treated ([3]; 200 mg/Kg i.p. daily for 30 days, day 84 ex ovo, control 0.7): 1.4
Mean flip number ([3]; 200 mg/Kg i.p., further 56 days after injections ceased): slightly improved
FN (out of 5 attempts), treated ([3]; 300 mg/Kg i.p. daily for 30 days, day 28 ex ovo, control 4.9): 4.5
FN (out of 5 attempts), treated ([3]; 300 mg/Kg i.p. daily for 30 days, day 45 ex ovo, control 3.5): 2.3
FN (out of 5 attempts), treated ([3]; 300 mg/Kg i.p. daily for 30 days, day 84 ex ovo, control 0.7): 0.1
FN (out of 5 attempts), treated ([3]; 300 mg/Kg i.p. three times weekly for 30 days, day 28 ex ovo, control 4.9): 4.5
FN (out of 5 attempts), treated ([3]; 300 mg/Kg i.p. three times weekly for 30 days, day 45 ex ovo, control 3.5): 2.7
FN (out of 5 attempts), treated ([3]; 300 mg/Kg i.p. three times weekly for 30 days, day 84 ex ovo, control 0.7): 0.6
FN Treated (out of 5 attempts) ([3]; Exp. 2, 40 mg/Kg i.p. daily, day 7-13, control 4.5): 4.9
FN Treated (out of 5 attempts) ([3]; Exp. 2, 40 mg/Kg i.p. daily, day 14-20, control 4.8): 5.0
FN Treated (out of 5 attempts) ([3]; Exp. 2, 40 mg/Kg i.p. daily, day 35-41, control 2.8): 5.0
FN Treated (out of 5 attempts) ([3]; Exp. 2, 40 mg/Kg i.p. daily, day 49-55, control 2.0): 4.5
FN Treated (out of 5 attempts) ([3]; Exp. 2, 40 mg/Kg i.p. daily, day 56-62, control 1.4): 3.8
FN Treated (out of 5 attempts) ([3]; Exp. 2, 40 mg/Kg i.p. daily, day 63-71, control 0.9): 2.3
FN Treated (out of 5 attempts) ([3]; Exp. 3, 70 mg/Kg i.p. daily, day 14-20, control 5): 5
FN Treated (out of 5 attempts) ([3]; Exp. 3, 70 mg/Kg i.p. daily, day 21-27, control 4.8): 5
FN Treated (out of 5 attempts) ([3]; Exp. 3, 70 mg/Kg i.p. daily, day 28-34, control 5): 5
FN (out of 5 attempts), treated ([3]; Table VII, oral 200 mg/Kg, 60 days, day 28 ex ovo, control 5.0): 4.1
FN (out of 5 attempts), treated ([3]; Table VII, oral 200 mg/Kg, 60 days, day 35 ex ovo, control 4.4): 3.6
FN (out of 5 attempts), treated ([3]; Table VII, oral 200 mg/Kg, 60 days, day 45 ex ovo, control 3.2): 2.4
FN (out of 5 attempts), treated ([3]; Table VII, oral 200 mg/Kg, 60 days, day 60 ex ovo, control 2.8): 1.8
FN (out of 5 attempts), treated ([3]; oral 300 mg/Kg daily, day 28 ex ovo, control 4.8): 4.7
FN (out of 5 attempts), treated ([3]; oral 300 mg/Kg daily, day 35 ex ovo, control 4.7): 4.4
FN (out of 5 attempts), treated ([3]; oral 450 mg/Kg daily for 45 days, day 28 ex ovo, control 5.0): 5.0
FN (out of 5 attempts), treated ([3]; oral 450 mg/Kg daily for 45 days, day 35 ex ovo, control 3.6): 4.8
FN (out of 5 attempts), treated ([3]; oral 450 mg/Kg daily for 45 days, day 45 ex ovo, control 1.7): 2
FN (out of 5 attempts), treated ([3]; oral 450 mg/Kg daily for 45 days, day 50 ex ovo, control 1.4): 1
FN (out of 5 attempts), treated ([3]; oral 600 mg/Kg daily, day 28 ex ovo, control 5.0): 5.0
FN (out of 5 attempts), treated ([3]; oral 600 mg/Kg daily, day 35 ex ovo, control 3.6): 4.3
FN (out of 5 attempts), treated ([3]; oral 600 mg/Kg daily, day 45 ex ovo, control 1.7): 2.7
FN (out of 5 attempts), treated ([3]; oral 600 mg/Kg daily, day 50 ex ovo, control 1.4): 2.3
FN (out of 5 attempts), treated ([3]; oral 1 g/Kg daily, day 28 ex ovo, control 1.7): 3.5
Birds able to rise from supine 5 times out of 5 attempts ([3]; oral 1 g/Kg daily, first four weeks, dystrophic controls 20%): Fifty
Maximum Weight Loss ([4]; 300 mg/Kg i.p. three times weekly for 30 days): 17%
Weight loss / toxic symptoms ([4]; initial single injection 50 mg/Kg, over 7 days): no weight loss over 7 days, nor any other toxic symptoms
Maximum Weight Loss ([4]; oral 600 mg/Kg daily): 4%
Maximum weight loss, reduction from control values ([4]; oral therapy, all doses): 7%
